US20180000085A1, “USE OF PICOLINAMIDE COMPOUNDS WITH FUNGICIDAL ACTIVITY” (DOW AGROSCIENCES LLC, priority 2014, published 2018)

Experiments:
Zymoseptoria tritici = assay: Leaf blotch of wheat (SEPTTR) disease control on wheat seedlings; format: in vivo; parameters: key to SEPTTR 1DP, HV activity at 100 ppm (% control rating) / SEPTTR 3DC, HV activity at 100 ppm (% control rating) / SEPTTR disease control, 1DP / SEPTTR disease control, 3DC / SEPTTR 1DP disease control rating, HV activity / SEPTTR 3DC disease control rating, HV activity / SEPTTR 3DC, LV activity at 125.1 g/H (% Control rating) / SEPTTR 1DP, LV activity at 125.1 g/H (% Control rating) / SEPTTR 1DP disease control rating, LV activity at 125.1 g/H / SEPTTR 3DC disease control rating, LV activity at 125.1 g/H / SEPTTR 3DC disease control rating, HV activity at 100 ppm / SEPTTR 1DP disease control rating, HV activity at 100 ppm / HV activity at 100 ppm SEPTTR 3DC (disease control rating) / HV activity at 100 ppm SEPTTR 1DP (disease control rating) / LV activity at 125.1 g/H SEPTTR 1DP (disease control rating) / LV activity at 125.1 g/H SEPTTR 3DC (disease control rating): A: > 80; B: ≤ 80; C: Not Tested; D: No Activity Observed in the Reported Assay; conditions: for SEPTTR 1DP disease control rating, HV activity at 100 ppm / SEPTTR 3DC disease control rating, HV activity at 100 ppm: high volume application; for SEPTTR 1DP disease control rating, HV activity at 100 ppm / SEPTTR 1DP disease control rating, LV activity at 125.1 g/H: 1 day protectant; for SEPTTR 3DC disease control rating, HV activity at 100 ppm / SEPTTR 3DC disease control rating, LV activity at 125.1 g/H: 3 day curative; for SEPTTR 1DP disease control rating, LV activity at 125.1 g/H / SEPTTR 3DC disease control rating, LV activity at 125.1 g/H: low volume application
Puccinia triticina = assay: Wheat brown rust (PUCCRT) disease control on wheat seedlings; format: in vivo; parameters: key to PUCCRT 3DC, HV activity at 100 ppm (% control rating) / PUCCRT disease control, 3DC / PUCCRT 1DP disease control rating, HV activity / PUCCRT 3DC disease control rating, HV activity / PUCCRT 3DC, LV activity at 125.1 g/H (% Control rating) / PUCCRT 1DP, LV activity at 125.1 g/H (% Control rating) / PUCCRT 3DC disease control rating, LV activity at 125.1 g/H / PUCCRT 1DP disease control rating, LV activity at 125.1 g/H / PUCCRT 3DC disease control rating, HV activity at 100 ppm / PUCCRT 1DP disease control rating, HV activity at 100 ppm / HV activity at 100 ppm PUCCRT 3DC (disease control rating) / LV activity at 125.1 g/H PUCCRT 1DP (disease control rating) / LV activity at 125.1 g/H PUCCRT 3DC (disease control rating): A: > 80; B: ≤ 80; C: Not Tested; D: No Activity Observed in the Reported Assay; conditions: for PUCCRT 1DP disease control rating, HV activity at 100 ppm / PUCCRT 3DC disease control rating, HV activity at 100 ppm: high volume application; for PUCCRT 1DP disease control rating, HV activity at 100 ppm / PUCCRT 1DP disease control rating, LV activity at 125.1 g/H: 1 day protectant; for PUCCRT 3DC disease control rating, HV activity at 100 ppm / PUCCRT 3DC disease control rating, LV activity at 125.1 g/H: 3 day curative; for PUCCRT 1DP disease control rating, LV activity at 125.1 g/H / PUCCRT 3DC disease control rating, LV activity at 125.1 g/H: low volume application

Row | SMILES | SEPTTR 1DP disease control rating, HV activity at 100 ppm (Zymoseptoria tritici) | SEPTTR 3DC disease control rating, HV activity at 100 ppm (Zymoseptoria tritici) | PUCCRT 1DP disease control rating, HV activity at 100 ppm (Puccinia triticina) | PUCCRT 3DC disease control rating, HV activity at 100 ppm (Puccinia triticina) | SEPTTR 1DP disease control rating, LV activity at 125.1 g/H (Zymoseptoria tritici) | SEPTTR 3DC disease control rating, LV activity at 125.1 g/H (Zymoseptoria tritici) | PUCCRT 1DP disease control rating, LV activity at 125.1 g/H (Puccinia triticina) | PUCCRT 3DC disease control rating, LV activity at 125.1 g/H (Puccinia triticina)
1 | COc1cccc(O[C@H](C2CCCC2)[C@H](C)OC(=O)[C@H](C)NC(=O)c2nccc(OC)c2O)c1 [Cmpd 847] | B (≤ 80) | A (> 80) | A (> 80) | A (> 80) | – | – | – | –
2 | COc1ccnc(C(=O)N[C@@H](C)C(=O)O[C@@H](C)[C@H](Oc2ccccc2)c2ccc(F)cc2)c1O [Cmpd 848] | B (≤ 80) | A (> 80) | A (> 80) | B (≤ 80) | – | – | – | –
3 | COc1ccnc(C(=O)N[C@@H](C)C(=O)O[C@@H](C)[C@@H](Oc2ccccc2)c2cccnc2)c1OC(C)=O [Cmpd 849] | – | – | – | – | D | B (≤ 80) | D | B (≤ 80)
4 | CCCO[C@@H](C(C)C)[C@H](C)OC(=O)[C@H](C)NC(=O)c1nccc(OC)c1OCOC(C)=O [Cmpd 850] | – | – | – | – | D | B (≤ 80) | B (≤ 80) | A (> 80)
5 | COc1ccnc(C(=O)N[C@@H](C)C(=O)O[C@@H](C)[C@@H](OC(=O)c2ccccc2)C(C)C)c1OCOC(C)=O [Cmpd 851] | – | – | – | – | D | D | B (≤ 80) | B (≤ 80)
6 | COc1ccnc(C(=O)N[C@@H](C)C(=O)O[C@@H](C)[C@@H](Oc2cccc(Cl)c2)C(C)C)c1OCOC(C)=O [Cmpd 852] | – | – | – | – | B (≤ 80) | A (> 80) | A (> 80) | A (> 80)
7 | COc1ccnc(C(=O)N[C@@H](C)C(=O)O[C@@H](C)[C@@H](Oc2cccc(C(F)(F)F)c2)C(C)C)c1OCOC(C)=O [Cmpd 853] | – | – | – | – | B (≤ 80) | A (> 80) | A (> 80) | A (> 80)
8 | COc1ccnc(C(=O)N[C@@H](C)C(=O)O[C@@H](C)[C@@H](Oc2cccc3ccccc23)C(C)C)c1OCOC(C)=O [Cmpd 854] | – | – | – | – | B (≤ 80) | A (> 80) | A (> 80) | B (≤ 80)
9 | CCCO[C@@H](C(C)C)[C@H](C)OC(=O)[C@H](C)NC(=O)c1nccc(OC)c1OC(C)=O [Cmpd 855] | – | – | – | – | D | D | B (≤ 80) | B (≤ 80)
10 | COc1ccnc(C(=O)N[C@@H](C)C(=O)O[C@@H](C)[C@@H](OC(=O)c2ccccc2)C(C)C)c1OC(C)=O [Cmpd 856] | – | – | – | – | D | D | B (≤ 80) | B (≤ 80)
11 | COc1ccnc(C(=O)NC(C)C(=O)OC(C)C(Oc2cccc(Cl)c2)C(C)C)c1OC(C)=O (stereo not shown) [Cmpd 857] | – | – | – | – | B (≤ 80) | B (≤ 80) | A (> 80) | A (> 80)
12 | COc1ccnc(C(=O)NC(C)C(=O)OC(C)C(Oc2cccc(C(F)(F)F)c2)C(C)C)c1OC(C)=O (stereo not shown) [Cmpd 858] | – | – | – | – | B (≤ 80) | A (> 80) | A (> 80) | A (> 80)
13 | COc1ccnc(C(=O)NC(C)C(=O)OC(C)C(Oc2cccc3ccccc23)C(C)C)c1OC(C)=O (stereo not shown) [Cmpd 859] | – | – | – | – | B (≤ 80) | D | A (> 80) | B (≤ 80)
14 | COc1ccnc(C(=O)NCC(=O)OC(C)C(Oc2ccccc2)C(C)C)c1OCOC(C)=O (stereo not shown) [Cmpd 862] | – | – | – | – | D | D | A (> 80) | A (> 80)
15 | COc1ccnc(C(=O)NC(Cc2ccccc2)C(=O)OC(C)C(Oc2ccccc2)C(C)C)c1OCOC(C)=O (stereo not shown) [Cmpd 865] | – | – | – | – | B (≤ 80) | B (≤ 80) | A (> 80) | A (> 80)
16 | COc1ccnc(C(=O)NC(C)C(=O)OC(C)C(Oc2ccc(Cl)cc2Cl)c2ccccc2)c1OC(C)=O (stereo not shown) [Cmpd 867] | – | – | – | – | A (> 80) | A (> 80) | A (> 80) | B (≤ 80)
17 | COc1ccnc(C(=O)NC(C)C(=O)OC(C)C(Oc2ccc(Cl)cc2Cl)c2ccccc2)c1OC(=O)C(C)C (stereo not shown) [Cmpd 868] | – | – | – | – | B (≤ 80) | B (≤ 80) | B (≤ 80) | B (≤ 80)
18 | COc1ccnc(C(=O)NC(C)C(=O)OC(C)C(Oc2ccc(Cl)cc2Cl)c2ccccc2)c1OCOC(C)=O (stereo not shown) [Cmpd 869] | – | – | – | – | A (> 80) | A (> 80) | A (> 80) | B (≤ 80)
19 | COc1ccnc(C(=O)NC(C)C(=O)OC(C)C(Oc2ccccc2)c2ccccc2)c1OC(C)=O (stereo not shown) [Cmpd 870] | – | – | – | – | A (> 80) | A (> 80) | A (> 80) | B (≤ 80)
20 | COc1ccnc(C(=O)NC(C)C(=O)OC(C)C(Oc2ccccc2)c2ccccc2)c1OC(=O)C(C)C (stereo not shown) [Cmpd 871] | – | – | – | – | A (> 80) | B (≤ 80) | D | D
21 | COc1ccnc(C(=O)NC(C)C(=O)OC(C)C(Oc2ccccc2)c2ccccc2)c1OCOC(C)=O (stereo not shown) [Cmpd 872] | – | – | – | – | A (> 80) | A (> 80) | A (> 80) | A (> 80)
22 | COc1ccnc(C(=O)N[C@@H](C)C(=O)O[C@@H](C)[C@H](Oc2cccc(F)c2)c2cccc(-c3ccccc3)c2)c1OCOC(C)=O [Cmpd 874] | – | – | – | – | A (> 80) | B (≤ 80) | A (> 80) | B (≤ 80)
